Test results from patent US9708314B2, “Heterocyclic amide compound” (NISSAN CHEMICAL INDUSTRIES, LTD., priority 2013, dated 2017).

Tests used:
Format in all cases: in vivo
[1] = test system: Echinochloa oryzacola Vasing.; test: Test Example 1: herbicidal activity, application before weed generation in submerged conditions; conditions: Application herbicide amount 320 g/ha; Seventeenth Table
Summary of the method: (§1)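 Water-diluted emulsion formulation is applied onto flood water (4 cm deep) covering alluvial soil on the day weed seeds are sown, after transplanting 2.5 leaf stage rice. Rates are expressed per hectare. Injury or control is graded 0–5 three weeks later.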

Monochoria vaginalis = test: as above; conditions: Application herbicide amount 320 g/ha; Seventeenth Table
Summary of the method: as §1

Scirpus juncoides = test: as above; conditions: Application herbicide amount 320 g/ha; Seventeenth Table
Summary of the method: as §1

[2] = test system: Beta vulgaris ssp. vulgaris; test: Test Example 4: effect on crop by application to foliage (diluvial soil, plastic box); conditions: foliage application, 320 g/ha
Summary of the method: (§2)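 Greenhouse plants (25° C. to 30° C., 14 d, diluvial soil) receive a foliar spray of water-diluted emulsifiable formulation at defined g/ha. Grading after 3 weeks uses a six-step herbicidal-ratio scale, with 4 covering 70% to <90% and 1 covering 5% to <20%.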

Brassica campestris L. = test: as above; conditions: foliage application, 320 g/ha
Summary of the method: as §2

Glycine max = test: as above; conditions: foliage application, 320 g/ha
Summary of the method: as §2

Triticum aestivum = test: as above; conditions: foliage application, 320 g/ha
Summary of the method: as §2

Zea mays = test: as above; conditions: foliage application, 320 g/ha
Summary of the method: as §2

[3] = test system: directly sowed Oryza sativa; test: as above; conditions: foliage application, 320 g/ha
Summary of the method: as §2

| SMILES | A: Echinochloa oryzicola Vasing. (herbicidal effect grade) [1] | C: Monochoria vaginalis (herbicidal effect grade) (Monochoria vaginalis) | B: Scirpus juncoides (herbicidal effect grade) (Scirpus juncoides) | f (Beta vulgaris ssp. vulgaris) effect on crop grade [2] | g (Brassica campestris L.) effect on crop grade (Brassica campestris L.) | c (Glycine max) effect on crop grade (Glycine max) | e (Triticum aestivum) effect on crop grade (Triticum aestivum) | b (Zea mays) effect on crop grade (Zea mays) | d (directly sowed Oryza sativa) effect on crop grade [3] |
| --- | --- | --- | --- | --- | --- | --- | --- | --- | --- |
| CSCCc1nnc2c(C(=O)Nc3nnnn3C)ccc(C(F)(F)F)n12 [2-057] | 4 (Herbicidal ratio of 70% or more and less than 90%) | 4 (Herbicidal ratio of 70% or more and less than 90%) | 4 (Herbicidal ratio of 70% or more and less than 90%) | 5 (Herbicidal ratio of 90% or more (almost completely withered)) | 5 (Herbicidal ratio of 90% or more (almost completely withered)) | 2 (Herbicidal ratio of 20% or more and less than 40%) | 4 (Herbicidal ratio of 70% or more and less than 90%) | 4 (Herbicidal ratio of 70% or more and less than 90%) | 5 (Herbicidal ratio of 90% or more (almost completely withered)) |
| Cn1nnnc1NC(=O)c1ccc(C(F)(F)F)n2c(CC[S+](C)[O-])nnc12 (stereo not drawn) [2-058] | 4 (Herbicidal ratio of 70% or more and less than 90%) | 5 (Herbicidal ratio of 90% or more (almost completely withered)) | 4 (Herbicidal ratio of 70% or more and less than 90%) | 5 (Herbicidal ratio of 90% or more (almost completely withered)) | 5 (Herbicidal ratio of 90% or more (almost completely withered)) | 3 (Herbicidal ratio of 40% or more and less than 70%) | 5 (Herbicidal ratio of 90% or more (almost completely withered)) | 5 (Herbicidal ratio of 90% or more (almost completely withered)) | 5 (Herbicidal ratio of 90% or more (almost completely withered)) |
| Cn1nnnc1NC(=O)c1ccc(C(F)(F)F)n2c(CCS(C)(=O)=O)nnc12 [2-059] | 4 (Herbicidal ratio of 70% or more and less than 90%) | 4 (Herbicidal ratio of 70% or more and less than 90%) | 4 (Herbicidal ratio of 70% or more and less than 90%) | 5 (Herbicidal ratio of 90% or more (almost completely withered)) | 5 (Herbicidal ratio of 90% or more (almost completely withered)) | 3 (Herbicidal ratio of 40% or more and less than 70%) | 4 (Herbicidal ratio of 70% or more and less than 90%) | 5 (Herbicidal ratio of 90% or more (almost completely withered)) | 5 (Herbicidal ratio of 90% or more (almost completely withered)) |
| Cn1nnnc1NC(=O)c1ccc(C(F)(F)F)n2c(-c3ccc(Cl)nc3)nnc12 [2-060] | 5 (Herbicidal ratio of 90% or more (almost completely withered)) | 5 (Herbicidal ratio of 90% or more (almost completely withered)) | 5 (Herbicidal ratio of 90% or more (almost completely withered)) | 5 (Herbicidal ratio of 90% or more (almost completely withered)) | 5 (Herbicidal ratio of 90% or more (almost completely withered)) | 2 (Herbicidal ratio of 20% or more and less than 40%) | 4 (Herbicidal ratio of 70% or more and less than 90%) | 5 (Herbicidal ratio of 90% or more (almost completely withered)) | 4 (Herbicidal ratio of 70% or more and less than 90%) |
| Cn1nnnc1NC(=O)c1ccc(C(F)(F)F)n2c(-c3cccs3)nnc12 [2-061] | 5 (Herbicidal ratio of 90% or more (almost completely withered)) | 5 (Herbicidal ratio of 90% or more (almost completely withered)) | 5 (Herbicidal ratio of 90% or more (almost completely withered)) | 5 (Herbicidal ratio of 90% or more (almost completely withered)) | 4 (Herbicidal ratio of 70% or more and less than 90%) | 3 (Herbicidal ratio of 40% or more and less than 70%) | 3 (Herbicidal ratio of 40% or more and less than 70%) | 5 (Herbicidal ratio of 90% or more (almost completely withered)) | 4 (Herbicidal ratio of 70% or more and less than 90%) |
| Cc1cc(-c2nnc3c(C(=O)Nc4nnnn4C)ccc(C(F)(F)F)n23)n(C)n1 [2-062] | 5 (Herbicidal ratio of 90% or more (almost completely withered)) | 5 (Herbicidal ratio of 90% or more (almost completely withered)) | 5 (Herbicidal ratio of 90% or more (almost completely withered)) | 5 (Herbicidal ratio of 90% or more (almost completely withered)) | 5 (Herbicidal ratio of 90% or more (almost completely withered)) | 5 (Herbicidal ratio of 90% or more (almost completely withered)) | 4 (Herbicidal ratio of 70% or more and less than 90%) | 5 (Herbicidal ratio of 90% or more (almost completely withered)) | 5 (Herbicidal ratio of 90% or more (almost completely withered)) |
| COc1ccc(Cc2nnc3c(C(=O)Nc4nnnn4C)ccc(C(F)(F)F)n23)cc1 [2-065] | 5 (Herbicidal ratio of 90% or more (almost completely withered)) | 4 (Herbicidal ratio of 70% or more and less than 90%) | 4 (Herbicidal ratio of 70% or more and less than 90%) | 5 (Herbicidal ratio of 90% or more (almost completely withered)) | 4 (Herbicidal ratio of 70% or more and less than 90%) | 4 (Herbicidal ratio of 70% or more and less than 90%) | 3 (Herbicidal ratio of 40% or more and less than 70%) | 3 (Herbicidal ratio of 40% or more and less than 70%) | 4 (Herbicidal ratio of 70% or more and less than 90%) |
| CC(C)Nc1nnc2c(C(=O)Nc3nnnn3C)ccc(C(F)(F)F)n12 [2-066] | 5 (Herbicidal ratio of 90% or more (almost completely withered)) | 4 (Herbicidal ratio of 70% or more and less than 90%) | 5 (Herbicidal ratio of 90% or more (almost completely withered)) | 5 (Herbicidal ratio of 90% or more (almost completely withered)) | 4 (Herbicidal ratio of 70% or more and less than 90%) | 1 (Herbicidal ratio of 5% or more and less than 20%) | 3 (Herbicidal ratio of 40% or more and less than 70%) | 4 (Herbicidal ratio of 70% or more and less than 90%) | 4 (Herbicidal ratio of 70% or more and less than 90%) |
| Cn1nnnc1NC(=O)c1ccc(C(F)(F)F)n2c([S+](C)[O-])nnc12 (stereo not drawn) [2-067] | 5 (Herbicidal ratio of 90% or more (almost completely withered)) | 4 (Herbicidal ratio of 70% or more and less than 90%) | 4 (Herbicidal ratio of 70% or more and less than 90%) | 5 (Herbicidal ratio of 90% or more (almost completely withered)) | 5 (Herbicidal ratio of 90% or more (almost completely withered)) | 4 (Herbicidal ratio of 70% or more and less than 90%) | 4 (Herbicidal ratio of 70% or more and less than 90%) | 5 (Herbicidal ratio of 90% or more (almost completely withered)) | 5 (Herbicidal ratio of 90% or more (almost completely withered)) |
| CCCSc1nnc2c(C(=O)Nc3nnnn3C)ccc(C(F)(F)F)n12 [2-068] | 5 (Herbicidal ratio of 90% or more (almost completely withered)) | 4 (Herbicidal ratio of 70% or more and less than 90%) | 5 (Herbicidal ratio of 90% or more (almost completely withered)) | 5 (Herbicidal ratio of 90% or more (almost completely withered)) | 4 (Herbicidal ratio of 70% or more and less than 90%) | 3 (Herbicidal ratio of 40% or more and less than 70%) | 2 (Herbicidal ratio of 20% or more and less than 40%) | 5 (Herbicidal ratio of 90% or more (almost completely withered)) | 4 (Herbicidal ratio of 70% or more and less than 90%) |
